Experimental data taken from US6656971B2, “Trisubstituted carbocyclic cyclophilin binding compounds and their use” (Guilford Pharmaceuticals Inc., priority 2001, dated 2003).

What was measured:
[1] = target: T1, human recombinant CyPA (Homo sapiens, UniProt P62937); assay: Rotamase (PPIase) inhibition, chymotrypsin-coupled cuvette assay, human recombinant CyPA; type: biochemical; settings: Table A, value without asterisk: human recombinant CyPA
Source text: A number of substrates for rotamase are known in the art or can be derived from those known. Typically, the substrate contacts a sample containing a protein with rotamase activity and the conversion of the substrate is detected after a period of time. The method for detecting conversion of the substrate will vary with the particular substrate chosen. One method has been termed the Ki test (See Harding, et al., Nature, 341:758-760 (1989); and Holt et al., J. Am. Chem. Soc., 115:9923-9938). The cis-trans isomerization of an alanine-proline bond in a model substrate, N-succinyl-Ala-Ala-Pro-Phe-p-nitroanilide (SEQ ID NO: 1), is monitored spectrophotometrically in a chymotrypsin-coupled assay. The action of chymotrypsin releases p-nitroaniline from only the trans form of the substrate. The amount of p-nitroaniline can be monitored in a spectrophotometer, for example. Other methods of detecting the presence of p-nitroaniline can also be used. The inhibition of this reaction caused by different concentrations of inhibitor is determined and the data are analyzed as a change in first-order rate constant as a function of inhibitor concentration, which yields the Ki value.
The following were added to a plastic cuvette: 950 μl of ice cold assay buffer (25 mM HEPES, pH 7.8, 100 mM NaCl), 10 μL of CyP A (2.5 μM in 10 mM Tris-Cl pH 7.5, 100 mM NaCl, 1 mM dithiothreitol), 25 μL of chymotrypsin (50 mg/ml in 1 mM HCl), and 10 μL of test compound, at various concentrations, in dimethyl sulfoxide. The reaction was initiated by the addition of 5 μL of substrate (succinyl-Ala-Phe-Pro-Phe-para-nitroanilide (SEQ ID NO: 1), 5 mg/mL in 470 mM LiCl in trifluoroethanol). The absorbance at 390 nm versus time was monitored for 90 seconds using a spectrophotometer and the rate constants were determined from the absorbance versus time data files.
The IC50 values which were obtained for representative compounds are given in the following Table A, and refer to the concentration that inhibits 50% of the rotamase activity in a sample.
(§1) The Cyclophilin utilized was a human recombinant CyPA, [Yoo et al., J. Mol. Biol., 269 (1997) 780-95].

[2] = target: T1, human recombinant CyPA; assay: Semiautomated microtiter plate assay of rotamase activity inhibition, human recombinant CyPA; type: biochemical; settings: Table B, value without asterisk: human recombinant CyPA
Procedure: (§2) Rotamase inhibition was determined using a semiautomated microtiter plate assay modification of the above described assay [see Küllertz et al., Clin. Chem. 44, 502-508 (1998)]. All dilutions of CyPA, peptide substrate, and chymotrypsin were made in 35 mM ice-cold HEPES buffer. Fifty μL of CyPA solution is added to 50 μL of the peptide substrate solution (Phe-Pro-Phe p-nitroanilide, 0.16 mg/ml) in a glass microtiter well plate (the concentration of human recombinant CyP being adjusted so that the reaction rate is increased by a factor of 3 as compared to an uncatalyzed control reaction wherein the peptide substrate is degraded by chymotrypsin alone, in the absence of CyPA and test compound). Using a Beckman Multimek™ 96 automated 96-channel pipettor, 5 μL of test compound solution, or a DMSO blank, were added to each well for a 30 minute preincubation at 4° C. One hundred μL of chymotrypsin solution (1 mg/mL) were added to each well and the absorbance at 390 nm versus time was monitored for 9-10 minutes using a BioRad Ultramark plate reader maintained at 4° C. and the rate constants were determined from the absorbance versus time data files.
(§3) IC50 values which were obtained for representative compounds are presented in the following Table B. The cyclophilin utilized was a human recombinant CyPA. […] While CyP A was used in these examples, other CyP proteins can be substituted.

[3] = target: T2, recombinant rat CyPA-GST fusion protein (Rattus norvegicus, UniProt P10111); assay: Rotamase (PPIase) inhibition, chymotrypsin-coupled cuvette assay, rat CyPA-GST fusion protein; type: biochemical; settings: Table A, value with asterisk: recombinant rat CyPA-GST fusion protein
T2 construct: made in house; host or cells: E. coli BL21

[4] = target: T2, recombinant rat CyPA-GST fusion protein; assay: Semiautomated microtiter plate assay of rotamase activity inhibition, rat CyPA-GST fusion protein; type: biochemical; settings: Table B, value with asterisk: recombinant rat CyPA-GST fusion protein
Procedure: as §1
The resulting fragment (573 base pairs) was cloned into pCRII and amplified. The CyP sequence was cut out with Sma1 and EcoR1 and cloned into the Sma1/EcoR1 sites in pGEX2TK (Pharmacia). This plasmid was transformed into BL21 E. coli cells for expression of the GST-CyPA fusion protein.
as §2, §3

[5] = tested on: nigrostriatal dopaminergic fibers; assay: MPTP-lesioned mouse model of Parkinson's disease, striatal TH fiber density; type: in vivo, CD1 albino mice; settings: for % protection of striatal tyrosine hydroxylase-immunoreactive fibres: 10 mg/kg s.c. once daily days 1-5, one hour prior to MPTP, perfused day seven

T2 sequence (P10111 2-164): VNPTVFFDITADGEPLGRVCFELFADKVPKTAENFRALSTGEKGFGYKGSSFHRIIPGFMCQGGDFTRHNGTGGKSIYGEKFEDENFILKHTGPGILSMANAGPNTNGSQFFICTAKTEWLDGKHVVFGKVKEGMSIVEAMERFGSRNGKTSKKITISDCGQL
T1 sequence (P62937 whole entry): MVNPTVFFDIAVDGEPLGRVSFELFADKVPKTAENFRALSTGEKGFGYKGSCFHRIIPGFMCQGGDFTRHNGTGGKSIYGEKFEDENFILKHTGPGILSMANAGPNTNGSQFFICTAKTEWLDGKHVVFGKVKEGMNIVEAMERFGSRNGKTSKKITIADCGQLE

Molecule | IC50 [1] [µM] | IC50 [2] [µM] | IC50 [3] [µM] | other results
O=C(Nc1cc(Cl)cc(Cl)c1)c1cc(COc2ccc(Cl)c(Cl)c2)cc(C(=O)Nc2cc(Cl)cc(Cl)c2)c1 [Compound 20, 1-[(3,4-dichlorophenyl)oxymethyl]-3,5-bis-[(3,5-dichlorophenyl)aminocarbonyl]benzene] | 0.153 | 0.499 |  | 
(3-bromo-5-{N-[3-(trifluoromethyl)phenyl]carbamoyl}phenyl)-N-[3-(trifluoromethyl) phenyl]formamide [Compound 26] | 0.909 | 2.54 |  | 
S=C(Nc1cc(Cl)cc(Cl)c1)Nc1cc(NC(=S)Nc2cc(Cl)cc(Cl)c2)cc(Nc2ccccn2)c1 [Compound 13] | 0.456 | 1.37 |  | 
O=C(Nc1ccc(Cl)c(C(F)(F)F)c1)c1cccc(COc2cc(C(=O)Nc3ccc(Cl)c(C(F)(F)F)c3)cc(C(=O)Nc3ccc(Cl)c(C(F)(F)F)c3)c2)c1 [Compound 37, 3-{[(3-Trifluoromethyl-4-chlorophenyl)aminocarbonyl]benzyloxy}-1,5-bis-[(3-trifluoromethyl-4-chlorophenyl)aminocarbonyl]benzene] | 1.2 |  |  | 
Nc1cc(CN2C(=O)c3ccccc3C2=O)cc(NC(=S)Nc2cc(Cl)cc(Cl)c2)c1 [Compound 31, 2-{[3-amino-5-({[(3,5-dichlorophenyl)amino]thioxomethyl}amino)phenyl]methyl}isoindoline-1,3-dione] | 1.58 |  | 3.53 | IC50 [4]: 6.94 µM
O=C(Nc1cc(Cl)c(Cl)c(Cl)c1)c1cc(OCc2ccc(Cl)c(Cl)c2)cc(C(=O)Nc2cc(Cl)c(Cl)c(Cl)c2)c1 [Compound 32, 1-(3,4-dichlorobenzyloxy)-3,5-bis-[(3,4,5-trichlorophenyl)aminocarbonyl]benzene] | 0.164 | 0.0515 | 0.102 | IC50 [4]: 0.0917 µM
O=C(NNC(=O)c1cc(O)cc(NC(=O)c2cccc(C(F)(F)F)c2)c1)c1ccccc1 [Compound 15, 1-Benzoyl-2-{3-[(3-trifluoromethyl)phenyl]carbonylamino-5-hydroxy}benzoylhydrazine] | 18.7 | 9.1 |  | 
O=C(Nc1ccc(Cl)c(Cl)c1)c1cccc(COc2cc(C(=O)Nc3ccc(Cl)c(Cl)c3)cc(C(=O)Nc3ccc(Cl)c(Cl)c3)c2)c1 [Compound 38, 3-{[(3,4-dichlorophenyl)aminocarbonyl]benzyloxy}-1,5-bis-[(3,4-dichloro-phenyl)aminocarbonyl]benzene] | 0.736 |  |  | 
S=C(Nc1cc(Cl)cc(Cl)c1)Nc1ccc(N2CCCCC2)c(NC(=S)Nc2cc(Cl)cc(Cl)c2)c1 [Compound 44] |  |  | 0.374 | % protection of striatal tyrosine hydroxylase-immunoreactive fibres [5]: 25.1%
CN(C)c1ccc(Nc2ccc(NC(=S)Nc3cc(Cl)cc(Cl)c3)cc2NC(=S)Nc2cc(Cl)cc(Cl)c2)cc1 [Compound 35, [(3,5-dichlorophenyl)amino]{[5-({[(3,5-dichlorophenyl)amino]thioxomethyl}amino)-2-{[4-(dimethylamino)phenyl]amino}phenyl]amino}methane-1-thione] |  |  | 1.31 | IC50 [4]: 0.353 µM
N#Cc1ccccc1-c1ccc(COc2cc(C(=O)NCCc3ccc(Cl)c(Cl)c3)cc(C(=O)NCCc3ccc(Cl)c(Cl)c3)c2)cc1 [Compound 21, 1-[4-(2-cyanophenyl)benzy]loxy-3,5-bis{2-[(3,4-dichlorophenyl)ethyl]aminocarbonyl}benzene] | 0.49 | 1.73 |  | 
O=C(Nc1cc(Cl)cc(Cl)c1)Nc1ccc(Br)c(N(S(=O)(=O)c2cc(Cl)cc(Cl)c2)S(=O)(=O)c2cc(Cl)cc(Cl)c2)c1 [Compound 29, N-(3-{bis[(3,5-dichlorophenyl)sulfonyl]amino}-4-bromophenyl)[(3,5-dichlorophenyl)amino]formamide] |  |  | 10 | 
O=C(Nc1cccc(C(F)(F)F)c1)c1cc(OCc2ccc3ccccc3c2)cc(C(=O)Nc2cccc(C(F)(F)F)c2)c1 [Compound 42, 1,3-Bis[(3-trifluoromethylphenyl)aminocarbonyl]-5-[(2-naphthyl)methyloxy]benzene] |  |  | 0.23 | % protection of striatal tyrosine hydroxylase-immunoreactive fibres [5]: 44.1%; striatal TH fiber density ([5]; regeneration protocol: MPTP days 1-5, compound once daily on days 8-12, perfused day 18): 88%
O=C1c2ccccc2C(=O)N1Cc1cc(NC(=S)Nc2cc(Cl)cc(Cl)c2)cc(NC(=S)Nc2cc(Cl)cc(Cl)c2)c1 [Compound 27, 2-{[3,5-bis({[(3,5-dichlorophenyl)amino]thioxomethyl}amino)phenyl]methyl}iso-indoline-1,3-dione] |  |  | 0.214 | 
O=C(Nc1cccc([N+](=O)[O-])c1)c1ccc(Br)c(C(=O)Nc2cccc([N+](=O)[O-])c2)c1 [Compound 41, {2-bromo-5-[N-(3-nitrophenyl)carbamoyl]phenyl}-N-(3-nitrophenyl) formamide] | 1.37 |  |  | 
O=C(Nc1cccc(C(F)(F)F)c1)c1cc(/C=C/c2ccc3ccccc3c2)cc(C(=O)Nc2cccc(C(F)(F)F)c2)c1 [Compound 25, (5-(2-(2-naphthyl)vinyl)-3-{N-[3-(trifluoromethyl)phenyl]carbamoyl}phenyl)-N-[3-(trifluoromethyl)phenyl]formamide] | 0.297 | 2.03 |  | 
COc1ccc(NC(=O)c2cccc3ccccc23)cc1OCc1cccc2ccccc12 [Compound 47, N-[4-methoxy-3-(naphthylmethoxy)phenyl]naphthylformamide] |  |  | 1.22 | 
